SMILES strings stand for the structures.

As a reminder, the IC50 is the concentration at which inhibition is half-maximal.

For the assay, the target named is T1, C5a anaphylatoxin chemotactic receptor 1 (Homo sapiens, UniProt P21730).
T1 sequence (P21730 whole entry): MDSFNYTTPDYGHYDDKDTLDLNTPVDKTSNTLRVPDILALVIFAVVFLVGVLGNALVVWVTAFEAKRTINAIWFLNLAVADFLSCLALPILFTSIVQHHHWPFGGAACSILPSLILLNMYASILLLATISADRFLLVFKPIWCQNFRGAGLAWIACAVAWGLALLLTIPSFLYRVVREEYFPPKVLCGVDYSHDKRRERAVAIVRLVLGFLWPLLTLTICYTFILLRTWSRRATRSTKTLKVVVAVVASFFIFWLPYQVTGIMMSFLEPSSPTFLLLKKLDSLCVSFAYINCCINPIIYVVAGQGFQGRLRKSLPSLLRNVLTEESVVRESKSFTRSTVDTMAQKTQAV
Kind of assay: FLIPR Assay: Compounds were tested for their ability to inhibit C5a-mediated calcium mobilization using a stable cell line over expressing the human C5aR & the Galpha 15 protein on the FLIPR (Fluorescent Imaging Plate Reader) Tetra system. Cells were maintained in culture media containing DMEM (Dulbecco's Modified Eagle Medium) with 4.5 g/L glucose, 10% fetal bovine serum, 100 U/mL, 1x non-essential amino acid, and 250 ug/mL G418 (Geneticin). Prior to testing of compounds, cells were plated at 10,000 cells/well in clear bottom 384-well black plate, and incubated overnight at 37C. with 5% CO2. On the day of experiment, culture media was removed, and replaced with assay buffer HBSS (Hanks' Balanced Salt Solution) with 20 mM HEPES (4-(2-hydroxyethyl)-1-piperazineethanesulfonic acid) and 0.1% BSA (bovine serum albumin) BSA containing calcium 5 dye (Molecular Devices) and 2.5 mM probenecid. After 1 hour incubation at 37C., 5% CO2 for 60 min, cells were pre-incubated with compounds for 30 minutes. Type of assay: functional.

For `CO[C@@H]1CCN(c2nc(-c3c(C)ccc4[nH]nc(C)c34)nc3c2CN(c2c(Cl)c(C(C)C)nn2C)CC3)[C@H](C)C1`, the IC50 was found to be 2 nM.
Regarding `CO[C@H]1CCN(c2nc(-c3c(Cl)cnc4[nH]ccc34)nc3c2CN(c2cc(C4CC4)ccc2C)CC3)CC1(C)C`, the IC50 worked out at 47 nM.
